Assay results as given in patent US11066369B2, “N-(pyridin-2-yl)pyridine-sulfonamide derivatives and their use in the treatment of disease” (Novartis AG, priority 2016, dated 2021).
Counter-ions that a name gives are not always drawn.

Tests used:
[1] = target: T1, horseradish peroxidase (HRP) tagged delF508-CFTR (Homo sapiens, UniProt P13569, DEL508-508); test: Measurement of delF508-CFTR-HRP surface expression in CFBE41o- cells; assay type: cell-based; settings: delF508-CFTR-HRP surface expression, CFBE41o- cells; for Emax: read-out: DelF508-CFTR-HRP Amax %; for EC50: read-out: DelF508-CFTR-HRP EC50;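 for DelF508-CFTR-HRP Amax %: percent efficacy relative to reference corrector lumacaftor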
T1 construct: expressed in transfected cells
How it was run: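 Surface-trafficked delF508-CFTR detected via extracellular HRP tag, read as luminescence from a membrane-impermeant substrate in CFBE41o- cells. Cells pre-induced 48h with 500 ng/mL doxycycline, then exposed 24h at 37° C to a 10-point, 3-fold dilution series from 10 μM (DMSO ≤0.5%). Triplicate dose-responses fitted logistically for EC50 after per-plate normalization; fold change versus reference compound.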

delF508-CFTR = target: T2, delF508-CFTR (Homo sapiens, UniProt P13569, DEL508-508); test: Measurement of delF508-CFTR functional activity in primary human bronchial epithelial cells (HBECs) using Multi-Transepithelial Clamp Circuit (MTECC-24) assay; assay type: cell-based; settings: primary CF HBECs; for MTECC24 CFHBEC- Amax %: test compound added 24h before assay plus potentiator, relative to reference combination (2 μM corrector + 0.5 μM potentiator); for EC50: test compound added 24h before assay, in the presence of potentiator, mean of at least two replicates, read-out: MTECC24 CFHBEC- EC50
T2 construct: functional activity of the CFTR channel (Chloride ion transport) in patient derived primary human bronchial epithelial cells; host or cells: patient-derived primary human bronchial epithelial cells (delF508-CFTR)
How it was run: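 Compound tested as 10-point, 1-in-3 concentration response (0.1% or 0.2% DMSO), 24 h basolateral pre-incubation, then re-added to both sides. MTECC-24 measured Ieq in ALI-differentiated primary delF508 bronchial cells after amiloride, forskolin activation, potentiator and INH-172 block; data normalized to DMSO baseline, EC50 fitted.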

T1 sequence (P13569 with tags, fused parts or gaps DEL508-508): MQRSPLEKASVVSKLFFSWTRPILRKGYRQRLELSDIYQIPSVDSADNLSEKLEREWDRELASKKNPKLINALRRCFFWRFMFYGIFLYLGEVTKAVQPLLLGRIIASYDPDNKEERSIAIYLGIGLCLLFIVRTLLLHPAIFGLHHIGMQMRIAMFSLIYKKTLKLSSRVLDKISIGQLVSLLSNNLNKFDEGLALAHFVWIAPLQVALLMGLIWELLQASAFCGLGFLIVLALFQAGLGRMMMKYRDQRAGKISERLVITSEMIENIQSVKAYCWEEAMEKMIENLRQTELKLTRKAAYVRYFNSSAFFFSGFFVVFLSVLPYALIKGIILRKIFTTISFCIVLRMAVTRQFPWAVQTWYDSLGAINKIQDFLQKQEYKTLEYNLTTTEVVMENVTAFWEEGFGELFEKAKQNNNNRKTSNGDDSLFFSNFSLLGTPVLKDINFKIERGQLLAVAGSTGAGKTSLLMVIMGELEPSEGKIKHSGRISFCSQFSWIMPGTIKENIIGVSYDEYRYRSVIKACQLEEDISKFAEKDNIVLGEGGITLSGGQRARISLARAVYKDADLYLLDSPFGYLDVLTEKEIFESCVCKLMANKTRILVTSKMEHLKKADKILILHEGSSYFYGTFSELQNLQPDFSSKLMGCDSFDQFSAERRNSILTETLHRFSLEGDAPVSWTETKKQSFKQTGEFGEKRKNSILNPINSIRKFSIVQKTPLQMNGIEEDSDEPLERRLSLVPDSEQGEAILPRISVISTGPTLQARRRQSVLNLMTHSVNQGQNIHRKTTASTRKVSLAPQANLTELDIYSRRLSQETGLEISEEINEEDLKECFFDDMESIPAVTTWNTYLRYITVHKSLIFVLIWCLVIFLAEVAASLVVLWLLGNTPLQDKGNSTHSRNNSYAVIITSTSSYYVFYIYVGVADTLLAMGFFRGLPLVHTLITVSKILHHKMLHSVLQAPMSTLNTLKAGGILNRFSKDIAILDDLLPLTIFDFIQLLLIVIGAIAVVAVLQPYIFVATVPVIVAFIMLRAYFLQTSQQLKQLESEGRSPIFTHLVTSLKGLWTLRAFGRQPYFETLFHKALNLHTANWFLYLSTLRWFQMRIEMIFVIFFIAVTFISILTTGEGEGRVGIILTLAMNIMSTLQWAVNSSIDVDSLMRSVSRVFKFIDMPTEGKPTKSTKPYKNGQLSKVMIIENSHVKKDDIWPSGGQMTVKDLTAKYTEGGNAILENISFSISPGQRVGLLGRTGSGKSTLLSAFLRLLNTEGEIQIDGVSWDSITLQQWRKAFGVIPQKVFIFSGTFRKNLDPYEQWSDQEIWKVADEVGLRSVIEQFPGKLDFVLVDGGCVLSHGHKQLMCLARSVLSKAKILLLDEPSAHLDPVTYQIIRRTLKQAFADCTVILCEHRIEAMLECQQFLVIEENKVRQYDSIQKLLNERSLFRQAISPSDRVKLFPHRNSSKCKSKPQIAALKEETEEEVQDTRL
T2 sequence (P13569 with tags, fused parts or gaps DEL508-508): as above

| Emax [1] | EC50 [1] | MTECC24 CFHBEC- Amax % (delF508-CFTR) | EC50 (delF508-CFTR) | SMILES |
| --- | --- | --- | --- | --- |
| 684% | 2510 nM | 77.0% | 314 nM | Cc1cccc(C)c1-c1nc(NS(=O)(=O)c2cccc(N3CCN[C@@H](CO)C3)n2)ccc1C(F)(F)F [Example 172, (R)—N-(6-(2,6-dimethylphenyl)-5-(trifluoromethyl)pyridin-2-yl)-6-(3-(hydroxymethyl)piperazin-1-yl)pyridine-2-sulfonamide Hydrochloride] |
| 336% | 4070 nM | 61.4% | 54.9 nM | Cc1ccccc1-c1nc(NS(=O)(=O)c2cccc(N3CCC(N)CC3)n2)ccc1C(F)(F)F [Example 108, 6-(4-aminopiperidin-1-yl)-N-(6-(o-tolyl)-5-(trifluoromethyl)pyridin-2-yl)pyridine-2-sulfonamide Hydrochloride] |
| 310% | 3190 nM | 58.1% | 222 nM | Cc1ccccc1-c1nc(NS(=O)(=O)c2cccc(N[C@H]3CCCNC3)n2)ccc1C(F)(F)F [Example 105, (S)-6-(piperidin-3-ylamino)-N-(6-(o-tolyl)-5-(trifluoromethyl)pyridin-2-yl)pyridine-2-sulfonamide Hydrochloride] |
| 370% | 2970 nM | 67.8% | 94.8 nM | Cc1ccccc1-c1nc(NS(=O)(=O)c2cccc(N3CCC[C@H](N)C3)n2)ccc1C(F)(F)F [Example 103, (S)-6-(3-aminopiperidin-1-yl)-N-(6-(o-tolyl)-5-(trifluoromethyl)pyridin-2-yl)pyridine-2-sulfonamide Hydrochloride] |
| 308% | 3450 nM | 79.6% | 164 nM | CN[C@@H]1CCN(c2cccc(S(=O)(=O)Nc3ccc(C(F)(F)F)c(-c4ccccc4C)n3)n2)C1 [Example 121, (R)-6-(3-(methylamino)pyrrolidin-1-yl)-N-(6-(o-tolyl)-5-(trifluoromethyl)pyridin-2-yl)pyridine-2-sulfonamide Hydrochloride] |
| 411% | 1830 nM | 70.2% | 55.3 nM | Cc1ccccc1-c1nc(NS(=O)(=O)c2cccc(N3CC[C@@H](N)C3)n2)ccc1C(F)(F)F [Example 119, (R)-6-(3-aminopyrrolidin-1-yl)-N-(6-(o-tolyl)-5-(trifluoromethyl)pyridin-2-yl)pyridine-2-sulfonamide Hydrochloride] |
| 465% | 1750 nM | 59.5% | 23 nM | Cc1cc(F)ccc1-c1nc(NS(=O)(=O)c2cccc(N3CC(O)C3)n2)ccc1C(F)(F)F [Example 218, N-(6-(4-fluoro-2-methylphenyl)-5-(trifluoromethyl)pyridin-2-yl)-6-(3-hydroxyazetidin-1-yl)pyridine-2-sulfonamide] |
| 363% | 2460 nM | 74.1% | 85.4 nM | O=S(=O)(Nc1ccc(C(F)(F)F)c(-c2ccccc2C2CC2)n1)c1cccc(N2CCNCC2)n1 [Example 148, N-(6-(2-cyclopropylphenyl)-5-(trifluoromethyl)pyridin-2-yl)-6-(piperazin-1-yl)pyridine-2-sulfonamide] |
| 962% | 1130 nM | 254.3% | 1.97 nM | CCc1ccccc1-c1nc(NS(=O)(=O)c2cccc(N3CCCC(C)(C(=O)O)C3)n2)ccc1C(F)(F)F (stereo not shown) [Example 371, 1-(6-(N-(6-(2-ethylphenyl)-5-(trifluoromethyl)pyridin-2-yl)sulfamoyl)pyridin-2-yl)-3-methylpiperidine-3-carboxylic Acid] |
| 218% | 3150 nM | 85.2% | 238 nM | Cc1ccccc1-c1nc(NS(=O)(=O)c2cccc(N[C@@H]3CCNC3)n2)ccc1C(F)(F)F [Example 123, (R)-6-(pyrrolidin-3-ylamino)-N-(6-(o-tolyl)-5-(trifluoromethyl)pyridin-2-yl)pyridine-2-sulfonamide Hydrochloride] |
| – | 744 nM | 62.4% | 11.8 nM | Cc1ccccc1-c1nc(NS(=O)(=O)c2cccc(N3CCN(C(=O)OC(C)(C)C)[C@H](C)C3)n2)ccc1C(F)(F)F [Example 166, tert-butyl (R)-2-methyl-4-(6-(N-(6-(o-tolyl)-5-(trifluoromethyl)pyridin-2-yl)sulfamoyl)pyridin-2-yl)piperazine-1-carboxylate] |

Continued, molecule first:

| SMILES | Emax [1] | EC50 [1] | MTECC24 CFHBEC- Amax % (delF508-CFTR) | EC50 (delF508-CFTR) |
| --- | --- | --- | --- | --- |
| Cc1c(F)cccc1-c1nc(NS(=O)(=O)c2cccc(N3CCN(C4CC4)CC3)n2)ccc1Cl [Example 141, N-(5-chloro-6-(3-fluoro-2-methylphenyl)pyridin-2-yl)-6-(4-cyclopropylpiperazin-1-yl)pyridine-2-sulfonamide] | 938% | 2020 nM | 88.7% | 8.6 nM |
| Cc1cccc(C)c1-c1nc(NS(=O)(=O)c2cccc(N[C@H]3C[C@@H](O)C3)n2)ccc1Cl [Example 286, N-[5-chloro-6-(2,6-dimethylphenyl)pyridin-2-yl]-6-{[(1s,3s)-3-hydroxycyclobutyl]amino}pyridine-2-sulfonamide] | 847% | 1490 nM | 153.1% | 23.9 nM |
| CCC1(C(=O)O)CCN(c2cccc(S(=O)(=O)Nc3ccc(Cl)c(-c4c(C)cccc4C)n3)n2)CC1 [Example 248, 1-(6-(N-(5-chloro-6-(2,6-dimethylphenyl)pyridin-2-yl)sulfamoyl)pyridin-2-yl)-4-ethylpiperidine-4-carboxylic Acid] | 568% | 1610 nM | 68.2% | 6.6 nM |
| Cc1ccc(C(F)(F)F)cc1-c1nc(NS(=O)(=O)c2cccc(N3CCNCC3)n2)ccc1Cl [Example 169, N-(5-chloro-6-(2-methyl-5-(trifluoromethyl)phenyl)pyridin-2-yl)-6-(piperazin-1-yl)pyridine-2-sulfonamide Hydrochloride] | 182% | 4000 nM | 40.5% | 144 nM |
| Nc1cccc(S(=O)(=O)Nc2ccc(Cl)c(-c3cc(C(F)(F)F)ccc3Cl)n2)n1 [Example 43, 6-amino-N-(5-chloro-6-(2-chloro-5-(trifluoromethyl)phenyl)pyridin-2-yl)pyridine-2-sulfonamide] | 361% | 2120 nM | 54.2% | 63.3 nM |
| Cc1c(C#N)cccc1-c1nc(NS(=O)(=O)c2cccc(N3CC(C)(O)C3)n2)ccc1Cl [Example 309, N-(5-chloro-6-(3-cyano-2-methylphenyl)pyridin-2-yl)-6-(3-hydroxy-3-methylazetidin-1-yl)pyridine-2-sulfonamide] | 194% | 3790 nM | 75.6% | 210 nM |
| Cc1cccc(C)c1-c1nc(NS(=O)(=O)c2cccc(O[C@H]3CC[C@H](C(=O)O)CC3)n2)ccc1Cl [Example 130, (1r,4r)-4-((6-(N-(5-chloro-6-(2,6-dimethylphenyl)pyridin-2-yl)sulfamoyl)pyridin-2-yl)oxy)cyclohexane-1-carboxylic Acid] | 157% | 2920 nM | 37.9% | 84.1 nM |
| Cc1cccc(C)c1-c1nc(NS(=O)(=O)c2cccc(N3CCN(C(=O)OC(C)(C)C)CC3)n2)ccc1Cl [Example 162, tert-butyl 4-(6-(N-(5-chloro-6-(2,6-dimethylphenyl)pyridin-2-yl)sulfamoyl)pyridin-2-yl)piperazine-1-carboxylate] | 662% | 666 nM | 58.8% | 17.7 nM |
| Cc1ccc(F)cc1-c1nc(NS(=O)(=O)c2cccc(N3CCNCC3)n2)ccc1Cl [Example 193, N-(5-chloro-6-(5-fluoro-2-methylphenyl)pyridin-2-yl)-6-(piperazin-1-yl)pyridine-2-sulfonamide hydrochloride] | 385% | 3920 nM | 81.2% | 178 nM |
| Cc1c(F)cccc1-c1nc(NS(=O)(=O)c2cccc(N3CCN(C(C)(C)C)CC3)n2)ccc1Cl [Example 140, 6-(4-(tert-butyl)piperazin-1-yl)-N-(5-chloro-6-(3-fluoro-2-methylphenyl)pyridin-2-yl)pyridine-2-sulfonamide] | 395% | 3480 nM | 65.3% | 29.5 nM |
| Cc1cccc(C)c1-c1nc(NS(=O)(=O)c2cccc(N3CCNC(=O)C3)n2)ccc1Cl [Example 131, N-(5-chloro-6-(2,6-dimethylphenyl)pyridin-2-yl)-6-(3-oxopiperazin-1-yl)pyridine-2-sulfonamide] | 729% | 2140 nM | 78.4% | 25 nM |
| O=S(=O)(Nc1ccc(Cl)c(-c2ccc(F)cc2Cl)n1)c1cccc(N2CC(O)C2)n1 [Example 214, N-(5-chloro-6-(2-chloro-4-fluorophenyl)pyridin-2-yl)-6-(3-hydroxyazetidin-1-yl)pyridine-2-sulfonamide] | 256% | 2030 nM | 71.1% | 51.9 nM |
